Experimental data from US6344184B1, “Oral composition for inhibiting oral malodor” (priority 1999, dated 2002).
Where two headings read alike, the source gives them in different places.

Test system: VSCs (hydrogen sulfide, methyl mercaptan) formed by bacteria in freshly collected human saliva
Assay: In vitro VSC inhibition in incubated human saliva, gas chromatography of gas phase
Format: cell-based
Method: In vitro experiments were performed to test the VSC-inhibiting potential of different combinations of zinc acetate and cationic antibacterial agents.
To a 1 ml sample of freshly collected human saliva in a test tube was added 10 microliter of the solutions (mouthrinses) described below. The test tubes were closed with a stopper and incubated overnight at 37° C. A control tube which contained only saliva served as a control. It is well known that large amounts of VSCs are formed in a test tube during the latter conditions, the bacteria breaking down the salivary proteins and forming VSCs from cysteine and methionine. The VSCs in the gas phase above the incubated saliva, were measured by gas chromatography in a Shimadzu 14B instrument, and hydrogen sulfide, methyl mercaptan and di-methyl sulfide were used as standard.
The solutions to be tested were: 0.3% zinc acetate, 0.025% chlorhexidine, 0.025% cetylpyridinium chloride and 0.025% benzalkonium chlorides. Subsequently the zinc acetate was combined with each of the individual antibacterial agents. All the experiments described In this paragraph were performed on the same day under Identical conditions. The concentrations chosen were based on experience from pilot experiments with different concentrations of the zinc and antibacterial agents.
An examination was conducted to investigate whether the effect of the combinations of zinc acetate and the individual antibacterial agents represented a synergistic effect. This was performed according to the method of Behrenbaum (J.lnf. Dis. 137:122-130, 1978). The fractional inhibitory concentrations (the FIC index) was calculated based on the amounts (AUC) of hydrogen sulfide and methyl mercaptan formed under different conditions. […] The FIC index was calculated from the following formula: (A+B)/A+(A+B)/B, where A+B represents the combinations of zinc and antibacterial agent, whereas A and B alone represent the individual agents.
If the FIC Index is below 1 (<1) a synergistic effect is established. If the index is like 1 (=1) an additional effect between A and B is seen, whereas an index above 1 (>1) indicates an antagonistic effect.

[1] = 10 microliter solution added to 1 ml human saliva, incubated overnight at 37° C, low AUC = strong inhibitor, control >27 mill
[2] = 10 microliter solution added to 1 ml human saliva, incubated overnight at 37° C, low AUC = strong inhibitor, control >41 mill

CC(=O)O.CC(=O)O.NC(=N\CCCCCC/N=C(N)/N=C(\N)Nc1ccc(Cl)cc1)/N=C(\N)Nc1ccc(Cl)cc1 [CHX 0.025%, chlorhexidine acetate]
HS (hydrogen sulfide) AUC value (amount of VSC) [1]: 443 000 AUC
MM (methyl mercaptan) AUC value (amount of VSC) [2]: 355 000 AUC
Effect on HS and MM in saliva, in words (incubated human saliva, versus control): clear effect on both HS and MM in the same order of magnitude as zinc acetate

CCCCCCCCCCCCCCCC[n+]1ccccc1 [CPC 0.025%, cethylpyridinium chloride]
HS (hydrogen sulfide) AUC value (amount of VSC): 5.2 mill
MM (methyl mercaptan) AUC value (amount of VSC): 6.89 mill

CC(=O)[O-].CC(=O)[O-].[Zn+2] [Zinc Ac. 0.3%, zinc acetate]
Effect on HS and MM in saliva, in words: reduced the amount of HS much more than the amount of MM
HS (hydrogen sulfide) AUC value (amount of VSC) [1]: 150 000 AUC
MM (methyl mercaptan) AUC value (amount of VSC) [2]: 4 mill

benzalkonium chloride [Benzalk 0.025%]
HS (hydrogen sulfide) AUC value (amount of VSC) [1]: 1.4 mill
MM (methyl mercaptan) AUC value (amount of VSC) [2]: 1.7 mill
